Measurements: PubChem BioAssay AID1963861 (Molecular Pharmacology Branch, DTP, NCI, 2024)

Test system: 885724-159-R-J1-PDC KRAS PDC multicell spheroid viability
Experiment: Anticancer human tumor 885724-159-R-J1-PDC patient-derived pancreatic adenocarcinoma cell line growth inhibition [KRAS2]
Details: for IC50: curve of first compound; for viability, T/C: stronger effect = lower value
Method in brief: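 KRAS-mutant tumor cells were grown as spheroids with HUVEC endothelial cells and human MSCs as stroma. Targeted agents were tested alone and with KRAS pathway inhibitors. Doses started at or near clinical Cmax, or 10 microM, descending half-log.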

[1] = second compound 0.1 µM, first compound 0.01 µM
[2] = second compound 0.1 µM, first compound 0.0316 µM
[3] = second compound 0.1 µM, first compound 0.1 µM
[4] = second compound 0.1 µM, first compound 0.316 µM
[5] = second compound 0.1 µM, first compound 1 µM
[6] = second compound 0.1 µM, first compound 3.16 µM
[7] = second compound 0.316 µM, first compound 0.01 µM
[8] = second compound 0.316 µM, first compound 0.0316 µM
[9] = second compound 0.316 µM, first compound 0.1 µM
[10] = second compound 0.316 µM, first compound 0.316 µM
[11] = second compound 0.316 µM, first compound 1 µM
[12] = second compound 0.316 µM, first compound 3.16 µM
[13] = second compound 1 µM, first compound 0.01 µM
[14] = second compound 1 µM, first compound 0.0316 µM
[15] = second compound 1 µM, first compound 0.1 µM
[16] = second compound 1 µM, first compound 0.316 µM
[17] = second compound 1 µM, first compound 1 µM
[18] = second compound 1 µM, first compound 3.16 µM
[19] = second compound 3.16 µM, first compound 0.01 µM
[20] = second compound 3.16 µM, first compound 0.0316 µM
[21] = second compound 3.16 µM, first compound 0.1 µM
[22] = second compound 3.16 µM, first compound 0.316 µM
[23] = second compound 3.16 µM, first compound 1 µM
[24] = second compound 3.16 µM, first compound 3.16 µM
[25] = second compound 10 µM, first compound 0.01 µM
[26] = second compound 10 µM, first compound 0.0316 µM
[27] = second compound 10 µM, first compound 0.1 µM
[28] = second compound 10 µM, first compound 0.316 µM
[29] = second compound 10 µM, first compound 1 µM
[30] = second compound 10 µM, first compound 3.16 µM
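Further: spheroids exposed to agents for 7 days before readout.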

Row | SMILES | IC50 (second compound 0.1 µM) | IC50 (second compound 0.316 µM) | IC50 (second compound 1 µM) | IC50 (second compound 3.16 µM) | IC50 (second compound 10 µM) | viability, T/C [2] | viability, T/C [3] | viability, T/C [4] | viability, T/C [5] | viability, T/C [8] | viability, T/C [9] | viability, T/C [10] | viability, T/C [11] | viability, T/C [14] | viability, T/C [15] | viability, T/C [16] | viability, T/C [17] | viability, T/C [20] | viability, T/C [21] | viability, T/C [22] | also measured
1 | CC1COCCN1c1cc(-c2ccnn2C)c2ccnc(-c3ccn[nH]3)c2n1 (stereo not given) + CC1OCC2(CCN(c3cnc(Sc4ccnc(N)c4Cl)c(N)n3)CC2)C1N | > 3160 nM | > 3160 nM | 852 nM | 573 nM | 236 nM | 87.2% | 67.6% | 60.1% | 53% | 75.5% | 61.4% | 60.2% | 54.7% | 69.1% | 63% | 58.4% | 47.9% | 67.2% | 56.9% | 56% | viability, T/C [1]: 91.3%; viability, T/C [6]: 52.1%; viability, T/C [7]: 81%; viability, T/C [12]: 49.8%; viability, T/C [13]: 80.7%; viability, T/C [18]: 42.7%; viability, T/C [19]: 73.5%; viability, T/C [23]: 45.9%; viability, T/C [24]: 42.2%; viability, T/C [25]: 65.3%; viability, T/C [26]: 59.7%; viability, T/C [27]: 53.8%; viability, T/C [28]: 49.2%; viability, T/C [29]: 43.2%; viability, T/C [30]: 41%
2 | CCN1CCN(Cc2ccc(Nc3ncc(F)c(-c4cc(F)c5nc(C)n(C(C)C)c5c4)n3)nc2)CC1 + CC1OCC2(CCN(c3cnc(Sc4ccnc(N)c4Cl)c(N)n3)CC2)C1N | > 1000 nM | > 1000 nM | > 1000 nM | > 1000 nM | > 1000 nM | 78% | 74.3% | 79.8% | 76.9% | 71.6% | 71.2% | 81.2% | 81% | 71.4% | 63.5% | 75.5% | 73.7% | 68.7% | 61.5% | 68.1% | viability, T/C (second compound 0.1 µM, first compound 0.00316 µM): 88.2%; viability, T/C [1]: 94.5%; viability, T/C (second compound 0.316 µM, first compound 0.00316 µM): 80%; viability, T/C [7]: 76.3%; viability, T/C (second compound 1 µM, first compound 0.00316 µM): 82.7%; viability, T/C [13]: 77.5%; viability, T/C (second compound 3.16 µM, first compound 0.00316 µM): 73.8%; viability, T/C [19]: 73%; viability, T/C [23]: 71%; viability, T/C (second compound 10 µM, first compound 0.00316 µM): 70.9%; viability, T/C [25]: 68.1%; viability, T/C [26]: 63.2%; viability, T/C [27]: 59.6%; viability, T/C [28]: 66%; viability, T/C [29]: 63.2%
3 | CCNC(=O)CC1N=C(c2ccc(Cl)cc2)c2cc(OC)ccc2-n2c(C)nnc21 (stereo not given) + CC1OCC2(CCN(c3cnc(Sc4ccnc(N)c4Cl)c(N)n3)CC2)C1N | 1000 nM | 676 nM | 600 nM | 437 nM | 256 nM | 92.8% | 95% | 67.2% | 54.5% | 86.1% | 80% | 59.2% | 45.2% | 80.5% | 80% | 56.6% | 45% | 74% | 72.5% | 54.1% | viability, T/C [6]: 43.9%; viability, T/C (second compound 0.1 µM, first compound 10 µM): 49.5%; viability, T/C [12]: 44%; viability, T/C (second compound 0.316 µM, first compound 10 µM): 40.2%; viability, T/C [18]: 38.5%; viability, T/C (second compound 1 µM, first compound 10 µM): 33.9%; viability, T/C [23]: 37.9%; viability, T/C [24]: 33.5%; viability, T/C (second compound 3.16 µM, first compound 10 µM): 30.1%; viability, T/C [26]: 66.9%; viability, T/C [27]: 61.9%; viability, T/C [28]: 47.5%; viability, T/C [29]: 31.6%; viability, T/C [30]: 26.4%; viability, T/C (second compound 10 µM, first compound 10 µM): 26.2%
